Columns and labels:
Format in all cases: cell-based
AGS stomach cancer cells = experiment: Cancer cell survival (CellTiter-Glo), AGS; conditions: 72 h
Procedure, shortened: (§1)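 Luminescent ATP read-out (CellTiter-Glo) after 72 h compound exposure at 37 C/5% CO2. Survival % is calculated against untreated cells minus medium background, and IC50 is taken from nine concentrations run in triplicate. Plating density was 4×10^3 cells/well with overnight attachment beforehand.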

T24 bladder cancer cells = experiment: Cancer cell survival (CellTiter-Glo), T24; conditions: Homo sapiens
Procedure, shortened: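 Viability by CellTiter-Glo after 72 h compound treatment of T24 bladder cancer cells (4×10^3/well, plated the night before), nine concentration levels in triplicate. Percent survival normalised to untreated cells minus medium background, from which IC50 was determined.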

[1] = system: Daudi lymphoma cancer cells; experiment: Cancer cell survival (CellTiter-Glo), Daudi; conditions: Homo sapiens, 72 h
Procedure, shortened: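 Daudi cells (4×10^3/well) were exposed for 72 h at 37 °C to nine concentrations of compound, added as 10× solutions spanning 1 μM–10 mM (fatty acids) or 100 nM–1 mM (others). CellTiter-Glo luminescence gave % survival versus untreated, medium-blank corrected; IC50 derived.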

[2] = system: PC-3 prostate cancer cells; experiment: Cancer cell survival (CellTiter-Glo), PC-3; conditions: Homo sapiens, PC-3 cells, 72 h
Procedure, shortened: as §1

A549 lung cancer cells = experiment: Cancer cell survival (CellTiter-Glo), A549; conditions: Homo sapiens, 72 h
Procedure, shortened: as §1

MCF7 breast cancer cells = experiment: Cancer cell survival (CellTiter-Glo), MCF7; conditions: Homo sapiens, 72 h
Procedure, shortened: as §1

A-431 skin cancer cells = experiment: Cancer cell survival (CellTiter-Glo), A-431; conditions: Homo sapiens, A-431 cells, 72 h
Procedure, shortened: as §1

[3] = system: HCT 116 colorectal cancer cells; experiment: Cancer cell survival (CellTiter-Glo), HCT 116; conditions: Homo sapiens, HCT 116 cells, 72 h
Procedure, shortened: as §1

[4] = 317 μM, read-out: Cell survival at given concentration
[5] = 1 mM, read-out: Cell survival at given concentration
[6] = 3 mM, read-out: Cell survival at given concentration
[7] = 10 mM, read-out: Cell survival at given concentration

Compound `CCC(=O)O` [propionate] has a viability at 1 µM (AGS stomach cancer cells; 1 μM, Table 10.2, read-out: Cell survival at given concentration) of 102%, a viability at 3 µM (AGS stomach cancer cells; 3 μM, Table 10.2, read-out: Cell survival at given concentration) of 98% and a viability at 10 µM (AGS stomach cancer cells; 10 μM, Table 10.2, read-out: Cell survival at given concentration) of 103%. It also gave a viability at 32 µM (AGS stomach cancer cells; 32 μM, Table 10.2, read-out: Cell survival at given concentration) of 101%, a viability at 100 µM (AGS stomach cancer cells; 100 μM, Table 10.2, read-out: Cell survival at given concentration) of 104% and a viability at 317 µM (AGS stomach cancer cells; [4]) of 101%. It also gave a viability at 1000 µM (AGS stomach cancer cells; [5]) of 103%, a viability at 3000 µM (AGS stomach cancer cells; [6]) of 96% and a viability at 10000 µM (AGS stomach cancer cells; [7]) of 70%. For the same compound, the viability at 1 µM (T24 bladder cancer cells; T-24, 1 μM, 72 h, Table 3.2, read-out: Cell survival at given concentration) was 99%, the viability at 3 µM (T24 bladder cancer cells; T-24, 3 μM, 72 h, Table 3.2, read-out: Cell survival at given concentration) was 97% and the viability at 10 µM (T24 bladder cancer cells; T-24, 10 μM, 72 h, Table 3.2, read-out: Cell survival at given concentration) was 97%. For the same compound, the viability at 32 µM (T24 bladder cancer cells; T-24, 32 μM, 72 h, Table 3.2, read-out: Cell survival at given concentration) was 99%, the viability at 100 µM (T24 bladder cancer cells; T-24, 100 μM, 72 h, Table 3.2, read-out: Cell survival at given concentration) was 97% and the viability at 317 µM (T24 bladder cancer cells; T-24, 317 μM, 72 h, read-out: Cell survival at given concentration) was 98%. For the same compound, the viability at 1000 µM (T24 bladder cancer cells; T-24, 1 mM, 72 h, read-out: Cell survival at given concentration) was 89%, the viability at 3000 µM (T24 bladder cancer cells; T-24, 3 mM, 72 h, read-out: Cell survival at given concentration) was 83% and the viability at 10000 µM (T24 bladder cancer cells; T-24, 10 mM, 72 h, read-out: Cell survival at given concentration) was 60%. For the same compound, the IC50 (T24 bladder cancer cells; T-24, 72 h, Table 3.2, read-out: IC50) was over 10 mM, the viability at 1 µM ([1]; 1 μM, Table 4.2, read-out: Cell survival at given concentration) was 97% and the viability at 3 µM ([1]; 3 μM, Table 4.2, read-out: Cell survival at given concentration) was 97%. For the same compound, the viability at 10 µM ([1]; 10 μM, Table 4.2, read-out: Cell survival at given concentration) was 99%, the viability at 32 µM ([1]; 32 μM, Table 4.2, read-out: Cell survival at given concentration) was 99% and the viability at 100 µM ([1]; 100 μM, Table 4.2, read-out: Cell survival at given concentration) was 101%. The viability at 317 µM [1, 4] was 97%, the viability at 1000 µM [1, 5] was 75% and the viability at 3000 µM [1, 6] was 47%. The viability at 10000 µM [1, 7] was 18%, the IC50 ([1]; Table 4.2) was 2.73 mM and the viability at 1 µM ([2]; 1 μM, Table 8.2, read-out: Cell survival at given concentration) was 100%. The viability at 3 µM ([2]; 3 μM, Table 8.2, read-out: Cell survival at given concentration) was 98%, the viability at 10 µM ([2]; 10 μM, Table 8.2, read-out: Cell survival at given concentration) was 98% and the viability at 32 µM ([2]; 32 μM, Table 8.2, read-out: Cell survival at given concentration) was 101%. For the same compound, the viability at 100 µM ([2]; 100 μM, Table 8.2, read-out: Cell survival at given concentration) was 104%, the viability at 317 µM [2, 4] was 98% and the viability at 1000 µM [2, 5] was 94%. For the same compound, the viability at 3000 µM [2, 6] was 84%, the viability at 10000 µM [2, 7] was 66% and the IC50 ([2]; Table 8.2) was over 10 mM. It also gave a viability at 1 µM (A549 lung cancer cells; 1 μM, Table 7.2, read-out: Cell survival at given concentration) of 98%, a viability at 3 µM (A549 lung cancer cells; 3 μM, Table 7.2, read-out: Cell survival at given concentration) of 98% and a viability at 10 µM (A549 lung cancer cells; 10 μM, Table 7.2, read-out: Cell survival at given concentration) of 102%. It also gave a viability at 32 µM (A549 lung cancer cells; 32 μM, Table 7.2, read-out: Cell survival at given concentration) of 103%, a viability at 100 µM (A549 lung cancer cells; 100 μM, Table 7.2, read-out: Cell survival at given concentration) of 101% and a viability at 317 µM (A549 lung cancer cells; [4]) of 104%. The viability at 1000 µM (A549 lung cancer cells; [5]) was 104%, the viability at 3000 µM (A549 lung cancer cells; [6]) was 94% and the viability at 10000 µM (A549 lung cancer cells; [7]) was 65%. The viability at 1 µM (MCF7 breast cancer cells; 1 μM, Table 5.2, read-out: Cell survival at given concentration) was 99%, the viability at 3 µM (MCF7 breast cancer cells; 3 μM, Table 5.2, read-out: Cell survival at given concentration) was 97% and the viability at 10 µM (MCF7 breast cancer cells; 10 μM, Table 5.2, read-out: Cell survival at given concentration) was 103%. It also gave a viability at 32 µM (MCF7 breast cancer cells; 32 μM, Table 5.2, read-out: Cell survival at given concentration) of 102%, a viability at 100 µM (MCF7 breast cancer cells; 100 μM, Table 5.2, read-out: Cell survival at given concentration) of 102% and a viability at 317 µM (MCF7 breast cancer cells; [4]) of 94%. For the same compound, the viability at 1000 µM (MCF7 breast cancer cells; [5]) was 91%, the viability at 3000 µM (MCF7 breast cancer cells; [6]) was 77% and the viability at 10000 µM (MCF7 breast cancer cells; [7]) was 51%. For the same compound, the IC50 (MCF7 breast cancer cells; Table 5.2) was over 10 mM, the viability at 1 µM (A-431 skin cancer cells; 1 μM, Table 9.2, read-out: Cell survival at given concentration) was 99% and the viability at 3 µM (A-431 skin cancer cells; 3 μM, Table 9.2, read-out: Cell survival at given concentration) was 101%. The viability at 10 µM (A-431 skin cancer cells; 10 μM, Table 9.2, read-out: Cell survival at given concentration) was 103%, the viability at 32 µM (A-431 skin cancer cells; 32 μM, Table 9.2, read-out: Cell survival at given concentration) was 102% and the viability at 100 µM (A-431 skin cancer cells; 100 μM, Table 9.2, read-out: Cell survival at given concentration) was 104%. The viability at 317 µM (A-431 skin cancer cells; [4]) was 99%, the viability at 1000 µM (A-431 skin cancer cells; [5]) was 98% and the viability at 3000 µM (A-431 skin cancer cells; [6]) was 89%. For the same compound, the viability at 10000 µM (A-431 skin cancer cells; [7]) was 70%, the IC50 (A-431 skin cancer cells; Table 9.2) was over 10 mM and the viability at 1 µM ([3]; 1 μM, Table 6.2, read-out: Cell survival at given concentration) was 98%. For the same compound, the viability at 3 µM ([3]; 3 μM, Table 6.2, read-out: Cell survival at given concentration) was 102%, the viability at 10 µM ([3]; 10 μM, Table 6.2, read-out: Cell survival at given concentration) was 103% and the viability at 32 µM ([3]; 32 μM, Table 6.2, read-out: Cell survival at given concentration) was 103%. The viability at 100 µM ([3]; 100 μM, Table 6.2, read-out: Cell survival at given concentration) was 106%, the viability at 317 µM [3, 4] was 103% and the viability at 1000 µM [3, 5] was 98%. It also gave a viability at 3000 µM [3, 6] of 66%, a viability at 10000 µM [3, 7] of 19% and an IC50 ([3]; Table 6.2) of 4.38 mM.
